Numbered stars: 1 amine (or outer) side, 2 acyl side, 3 side chain; on linkers, the order of the positions; unused ones are H or OH. Square brackets hold non-standard residues; d marks the D form. Side chains are listed from the residue outwards. Peptide text beside a SMILES is read from it. * marks the point of attachment. C20 diacid = O=C(O)CCCCCCCCCCCCCCCCCCC(=O)*; γGlu = O=C(O)[C@H](CCC(=O)[*:2])N[*:1]; αMeF = C[C@](N)(Cc1ccccc1)C(=O)O; AEEA = NCCOCCOCC(=O)O; Aib = CC(C)(N)C(=O)O
Assays:
[1] = biological target: T1, human Gcg receptor (Homo sapiens, UniProt P47871); test: [125I]-Glucagon binding (SPA), human Gcg receptor; details: read-out: hGLcgR Ki, nM (SEM, n)
T1 construct: expressed in transfected cells; crude membranes
T1 sequence (P47871 26-477): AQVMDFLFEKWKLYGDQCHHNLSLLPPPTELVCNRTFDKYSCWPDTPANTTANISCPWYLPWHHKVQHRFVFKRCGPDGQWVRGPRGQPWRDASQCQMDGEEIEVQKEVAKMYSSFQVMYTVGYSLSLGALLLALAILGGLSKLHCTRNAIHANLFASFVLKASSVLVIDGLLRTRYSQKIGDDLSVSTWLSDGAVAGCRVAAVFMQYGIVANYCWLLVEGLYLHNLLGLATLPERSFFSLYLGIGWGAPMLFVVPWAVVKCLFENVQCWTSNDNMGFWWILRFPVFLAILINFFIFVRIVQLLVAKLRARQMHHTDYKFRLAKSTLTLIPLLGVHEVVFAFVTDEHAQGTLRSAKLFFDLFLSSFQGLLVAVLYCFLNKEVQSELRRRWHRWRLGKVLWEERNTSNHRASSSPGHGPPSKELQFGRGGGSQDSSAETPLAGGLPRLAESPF
Outline: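 Crude membranes from cells expressing the receptor, prepared by hypotonic lysis in 50 mM Tris HCl pH 7.5 with protease inhibitors, homogenization and differential centrifugation, were used in a WGA-bead SPA. Binding buffer: 25 mM HEPES pH 7.4, 2.5 mM CaCl2, 1 mM MgCl2, bacitracin, Tween-20.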

[2] = biological target: T2, gastric inhibitory peptide receptor (GIPR) (Homo sapiens, UniProt P48546); test: cAMP pharmacological functional assay in presence of casein, hGIPR; format: cell-based; details: HEK293 cells expressing hGIPR, 0.1% Casein, geometric mean; read-out: hGIPR cAMP Rel EC50 nM (SEM, n)
T2 sequence (P48546 22-466): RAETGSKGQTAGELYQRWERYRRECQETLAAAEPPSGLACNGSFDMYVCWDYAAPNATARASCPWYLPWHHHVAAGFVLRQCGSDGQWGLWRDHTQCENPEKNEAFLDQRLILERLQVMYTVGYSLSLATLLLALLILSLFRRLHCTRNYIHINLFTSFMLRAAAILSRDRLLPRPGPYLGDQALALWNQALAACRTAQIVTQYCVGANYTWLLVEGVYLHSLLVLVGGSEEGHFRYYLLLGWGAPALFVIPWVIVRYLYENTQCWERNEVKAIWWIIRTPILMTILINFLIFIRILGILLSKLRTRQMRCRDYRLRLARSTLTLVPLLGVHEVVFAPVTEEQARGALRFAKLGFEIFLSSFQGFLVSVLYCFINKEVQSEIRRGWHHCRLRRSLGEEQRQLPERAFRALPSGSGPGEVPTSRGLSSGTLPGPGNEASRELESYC

[3] = biological target: T3, human GIP receptor (Homo sapiens, UniProt P48546); test: [125I]-GIP binding (SPA), human GIP receptor; details: read-out: hGIPR Ki, nM (SEM, n)
T3 construct: expressed in transfected cells; crude membranes
T3 sequence (P48546 22-466): T2 sequence (P48546 22-466)

[4] = biological target: human GLP-1R (Homo sapiens, UniProt P43220); test: [125I]-GLP-1 binding (SPA), human GLP-1 receptor; parameters: expressed in transfected cells; crude membranes; details: read-out: hGLP1R Ki, (nM) (SEM, n)
human GLP-1R, sequence (P43220 24-463): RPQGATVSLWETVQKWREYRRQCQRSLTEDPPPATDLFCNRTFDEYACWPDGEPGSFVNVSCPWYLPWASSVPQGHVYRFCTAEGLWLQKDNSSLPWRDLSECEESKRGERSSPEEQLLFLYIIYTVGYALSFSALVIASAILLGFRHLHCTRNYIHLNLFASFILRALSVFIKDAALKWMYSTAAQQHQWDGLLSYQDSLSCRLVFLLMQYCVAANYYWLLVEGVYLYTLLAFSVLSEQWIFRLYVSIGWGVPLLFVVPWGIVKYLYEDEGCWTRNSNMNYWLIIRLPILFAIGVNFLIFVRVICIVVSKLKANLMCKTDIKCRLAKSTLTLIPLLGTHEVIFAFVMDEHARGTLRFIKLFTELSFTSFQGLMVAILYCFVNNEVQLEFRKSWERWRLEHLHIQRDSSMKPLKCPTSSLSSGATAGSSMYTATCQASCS
Outline: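 Assay buffer: HEPES 25 mM, pH 7.4, CaCl2 2.5 mM, MgCl2 1 mM, with EDTA-free protease inhibitors. Receptor came from crude cell membranes prepared by homogenization and centrifugation at 4° C. IC50s came from four-parameter fits (maximum, minimum, IC50, Hill slope) and were expressed as Ki geometric means with SEM.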

[5] = biological target: human GLP-1 receptor (GLP-1R) (Homo sapiens, UniProt P43220); test: cAMP pharmacological functional assay in presence of casein, hGLP-1R; format: cell-based; details: HEK293 cells expressing hGLP-1R, 0.1% Casein, geometric mean; read-out: hGLP1R cAMP Rel EC50 nM (SEM, n)
human GLP-1 receptor (GLP-1R), sequence (P43220 24-463): as above

Structure (SMILES) | Ki [1] [nM] | EC50 [2] [nM] | Ki [3] [nM] | Ki [4] [nM] | EC50 [5] [nM]
CC[C@H](C)[C@H](NC(=O)[C@H](CC(C)C)NC(=O)[C@H](Cc1ccc(O)cc1)NC(=O)[C@H](CCC(=O)O)NC(=O)[C@@H](NC(=O)[C@H](Cc1ccccc1)NC(=O)[C@H](C)NC(=O)C(C)(C)NC(=O)[C@H](CCC(N)=O)NC(=O)[C@H](C)NC(=O)[C@H](CCCCNC(=O)COCCOCCNC(=O)COCCOCCNC(=O)CC[C@H](NC(=O)CCCCCCCCCCCCCCCCCCC(=O)O)C(=O)O)NC(=O)[C@H](CCCCN)NC(=O)[C@H](CC(=O)O)NC(=O)[C@H](CC(C)C)NC(=O)[C@H](CC(C)C)NC(=O)[C@@H](NC(=O)[C@H](CO)NC(=O)[C@H](CC(C)C)NC(=O)[C@H](CC(=O)O)NC(=O)[C@H](CO)NC(=O)[C@@H](NC(=O)[C@](C)(Cc1ccccc1)NC(=O)[C@@H](NC(=O)CNC(=O)[C@H](CCC(=O)O)NC(=O)C(C)(C)NC(=O)[C@@H](N)Cc1ccc(O)cc1)[C@@H](C)O)[C@@H](C)O)[C@@H](C)CC)[C@@H](C)CC)C(=O)N[C@@H](CCC(=O)O)C(=O)NCC(=O)NCC(=O)N1CCC[C@H]1C(=O)N[C@@H](CO)C(=O)N[C@@H](CO)C(=O)NCC(=O)N[C@@H](C)C(=O)N1CCC[C@H]1C(=O)N1CCC[C@H]1C(=O)N1CCC[C@H]1C(=O)N[C@@H](CO)C(N)=O [Example 129] (H-Y[Aib]EGT[αMeF]TSDLSILLDKK([AEEA-AEEA-γGlu-C20 diacid])AQ[Aib]AFIEYLIEGGPSSGAPPPS-NH2) | 14.9 | 0.106 | 0.0278 | 1 | 0.121
CC[C@H](C)[C@H](NC(=O)[C@H](CC(C)C)NC(=O)[C@H](Cc1ccc(O)cc1)NC(=O)[C@H](CCC(=O)O)NC(=O)[C@@H](NC(=O)[C@H](Cc1ccccc1)NC(=O)[C@H](C)NC(=O)C(C)(C)NC(=O)[C@H](CCC(N)=O)NC(=O)[C@H](C)NC(=O)[C@H](CCCCNC(=O)COCCOCCNC(=O)COCCOCCNC(=O)CC[C@H](NC(=O)CCCCCCCCCCCCCCCCCCC(=O)O)C(=O)O)NC(=O)[C@H](CCCCN)NC(=O)[C@H](CC(=O)O)NC(=O)[C@H](CC(C)C)NC(=O)[C@H](CC(C)C)NC(=O)[C@@H](NC(=O)[C@H](CO)NC(=O)[C@H](Cc1ccc(O)cc1)NC(=O)[C@H](CC(=O)O)NC(=O)[C@H](CO)NC(=O)[C@@H](NC(=O)[C@H](Cc1ccccc1)NC(=O)[C@@H](NC(=O)CNC(=O)[C@H](CCCC(=O)O)NC(=O)C(C)(C)NC(=O)[C@@H](N)Cc1ccc(O)cc1)[C@@H](C)O)[C@@H](C)O)[C@@H](C)CC)[C@@H](C)CC)C(=O)N[C@@H](CCC(=O)O)C(=O)NCC(=O)NCC(=O)N1CCC[C@H]1C(=O)N[C@@H](CO)C(=O)N[C@@H](CO)C(=O)NCC(=O)N[C@@H](C)C(=O)N1CCC[C@H]1C(=O)N1CCC[C@H]1C(=O)N1CCC[C@H]1C(=O)N[C@@H](CO)C(N)=O [Example 89] | 324 | 0.119 | 0.045 | 2.64 | 0.335
